Patent US20030073815A1, “Adrenic acid receptor and uses thereof” (priority 2001, published 2003)
Entries after “also recorded” stand apart in the source; their conditions may differ.

Legend:
[1] = molecular target: T1, PFI-011 (Homo sapiens, UniProt Q8TDT2); test: Functional assay measuring intracellular calcium mobilisation (FLIPR); assay type: cell-based; settings: PFI-011-transfected cells compared to mock-transfected cells; Fluo3, FLIPR
T1 construct: expressed in transfected cells
Procedure: 5×10^6 cells of a suitable host cell line, chosen to express a low number of endogenous receptors (e.g. HEK293 or CHO-K1) and engineered to stably express certain Gα proteins (e.g. mouse Gα15 (Wilkie, T. M. et al (1991) Proc. Natl. Acad. Sci. 88, 10049-10053), a chimeric Gql5/Gql5 α-subunit, or human Gα16 (Amatruda, TT 3rd et al (1991) Proc. Natl. Acad. Sci. 88, 5587-5591)), were transiently transfected with 7.5 μg of cDNA encoding PFI-011 in a suitable mammalian cell expression vector, or vector alone, using Lipofectamine Plus® reagent (Gibco BRL) as per the manufacturer's protocol. […]
Fluorescence Imaging Plate Reader (FLIPR®) technology was employed as a means to detect activation of PFI-011 by various potential GPCR agonists.
Cells were transfected as described in Example 3. […] The FLIPR® processing involved reading the fluorescence for all samples for 2 minutes; during this time the fluorescence baseline was determined for 10 seconds. The desired amount of compounds (i.e. potential GPCR agonists) was then automatically transferred to the wells and the fluorescence was continuously monitored for the remainder of the time. […]
Compounds capable of acting as agonists for the receptor were identified by them causing a transient rise in fluorescence, and therefore in intracellular calcium, in the cells.

[2] = system: oxygenation of arachidonic acid; settings: cited from earlier work
[3] = system: rabbits; settings: cited from earlier work

T1 sequence (Q8TDT2 whole entry): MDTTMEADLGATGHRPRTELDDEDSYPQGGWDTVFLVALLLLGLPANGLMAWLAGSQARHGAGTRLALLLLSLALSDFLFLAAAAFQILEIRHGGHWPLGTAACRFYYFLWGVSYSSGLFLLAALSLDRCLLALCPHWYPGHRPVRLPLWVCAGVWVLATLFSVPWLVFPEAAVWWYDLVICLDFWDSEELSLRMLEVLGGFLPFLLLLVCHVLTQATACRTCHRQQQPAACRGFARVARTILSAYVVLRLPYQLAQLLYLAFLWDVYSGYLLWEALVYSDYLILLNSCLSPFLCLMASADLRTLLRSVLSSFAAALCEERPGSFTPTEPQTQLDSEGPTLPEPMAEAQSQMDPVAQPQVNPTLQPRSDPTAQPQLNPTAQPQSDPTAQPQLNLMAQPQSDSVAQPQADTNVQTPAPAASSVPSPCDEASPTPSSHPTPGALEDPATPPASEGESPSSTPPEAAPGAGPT

## CCCCC/C=C\C/C=C\C/C=C\C/C=C\CCCCCC(=O)O [adrenic acid]
[1]
  response of PFI-011-expressing cells (fluorescence change over time, transient rise in intracellular calcium): response of PFI-011-expressing cells to adrenic acid; also recorded: responds to adrenic acid
[2]
  oxygenation of arachidonic acid; synthesis of prostaglandins PGF2, PGE2 & PGD2: inhibit the oxygenation of arachidonic acid
[3]
  blood pressure and renal flow: reduce blood pressure and renal flow
